We go through 19 compounds from patent US20230227484A1, “PYRIMIDINE COMPOUND AS AXL INHIBITOR” (NANJING CHIA TAI TIANQING PHARMACEUTICAL CO., LTD., priority 2020, published 2023).

The test system of experiment [1] is MV-4-11 (human myeloid monocytic leukemia cell line). Description: Proliferation inhibition activity of compounds to MV-4-11 cells (CellTiter-Glo). Type of experiment: cell-based. Particulars: MV4-11 cells, 72 h dosing. Here is the method:
MV-4-11 (human myeloid monocytic leukemia cell line, culture medium: JIMDM+10% fetal bovine serum) is purchased from Cobioer Biosciences Co., Ltd and cultured in a 5% C02 incubator at 37° C. The cells in a logarithmic growth phase are plated in a 96-well plate at cell densities of 8000 cells/well, 6000 cells/well, 2000 cells/well, 2000 cells/well and 3000 cells/well, and a blank control group is set at the same time.
A compound to be tested and the positive drug are dissolved in dimethyl sulfoxide to prepare a 10 mM stock solution, which is then stored in −80° C. refrigerator for long-time storage. After the cells are plated for 24 h, the 10 mM compound stock solution is diluted with dimethyl sulfoxide to obtain a working solution having a 200-fold concentration (the highest concentration is 200 or 2000 μM, a 3-fold gradient, a total of 10 concentrations), and 3 μL of the working solution of each concentration is added to 197 μL of complete medium, and diluted into a working solution of 3-fold concentration. 50 μL of the working solution is then taken and added to a 100 μL cell culture medium (a final concentration of dimethyl sulfoxide is 0.5%, v/v), and two complex holes are set for each concentration. After 72 h of dosing treatment, 50 μl of CellTiter-Glo® (purchased from Promega) is added to each well. Fluorescence signals are measured on Envision (PerkinElmer) according to an operating procedure of the specification. GraphPad Prism 5 software log(inhibitor) vs. response-Variable slope is used to fit a dose-response curve, so as to obtain the IC50 value of the compound to the inhibition of cell-proliferation. The calculation formulation of the inhibition rate is as follows: […]
wherein: signal value of subject: a mean fluorescence signal of cell+medium+compound group; signal value of blank group: a mean fluorescence signal of medium group (containing 0.5% DMSO); signal value of negative control group: a mean fluorescence signal of cell+medium group (containing 0.5% DMSO).

The next experiment addresses T1, AXL kinase (Homo sapiens, UniProt P30530).
T1 construct: purchased Carna 08-107
T1 sequence (P30530 473-894 limits assumed): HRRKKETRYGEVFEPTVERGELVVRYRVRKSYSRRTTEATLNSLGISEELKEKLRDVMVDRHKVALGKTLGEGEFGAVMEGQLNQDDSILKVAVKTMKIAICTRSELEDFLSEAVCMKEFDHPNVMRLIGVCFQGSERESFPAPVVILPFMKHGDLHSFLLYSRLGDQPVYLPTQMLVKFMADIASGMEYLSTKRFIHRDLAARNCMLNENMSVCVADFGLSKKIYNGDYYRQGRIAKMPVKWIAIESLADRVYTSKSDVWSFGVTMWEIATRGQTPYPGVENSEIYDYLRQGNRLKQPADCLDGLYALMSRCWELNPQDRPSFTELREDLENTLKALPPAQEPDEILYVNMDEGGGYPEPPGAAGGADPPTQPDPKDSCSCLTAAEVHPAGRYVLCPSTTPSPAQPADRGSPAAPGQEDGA
Description: Inhibitory activity of compound against AXL kinase (HTRF KinEASE). Type of experiment: biochemical. Particulars: AXL enzyme (Carna, 08-107), ATP 15 μM; "<" means below detection limit of the test. Summed up:
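AXL enzyme (final 0.016 ng/uL) was preincubated with compound (8 concentrations from 1 μM, ½ log steps) for 15 min at room temperature, then reacted with TK Substrate 3-biotin (final 1) and ATP (final 15 μM) for 45 min at 25° C. Phosphorylation was read by HTRF (TK antibody-cryptate, streptavidin-XL665, 1 h); IC50 from variable-slope dose-response fit.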
For orientation: Time-resolved FRET reads energy transfer from a long-lived donor to a nearby acceptor.

Broadly, the IC50 is the point on the concentration scale where inhibition reaches its midpoint. Low readings indicate inhibition by little substance, high ones a need for much substance.

For `CNC(=O)c1cc(OC)ccc1Nc1nc(Nc2ccc3c(c2)CC[C@@H](N2CCCC2)CC3)ncc1Cl` [Example 37, (S)-2-((5-chloro-2-(((7-(pyrrolidin-1-yl)-6,7,8,9-tetrahydro-5H-benzo[7]annulen-2-yl)amino))pyrimidin-4-yl)amino)-5-methoxyl-N-methylbenzamide], the results for the IC50 (in experiment [1]; against AXL kinase) were 3.39 nM and 0.18 nM, respectively.

`CNC(=O)c1cc(O)ccc1Nc1nc(Nc2ccc3c(c2)CC[C@@H](N2CCCC2)CC3)ncc1Cl` [Example 45, (S)-2-((5-chloro-2-((7-(pyrrolidin-1-yl)-6,7,8,9-tetrahydro-5H-benzo[7]annulen-2-yl)amino)pyrimidin-4-yl)amino)-5-hydroxyl-N-methylbenzamide]: the IC50 in experiment [1] was determined as 3.48 nM; at AXL kinase, 0.5 nM.

With `O=C(c1ccccc1Nc1nc(Nc2ccc3c(c2)CC[C@@H](N2CCCC2)CC3)ncc1Cl)N1CCCC1` [Example 6, (S)-(2-((5-chloro-2-((7-(pyrrolidin-1-yl)-6,7,8,9-tetrahydro-5H-benzo[7]annulen-2-yl)amino)pyrimidin-4-yl)amino)phenyl)(pyrrolidin-1-yl)methanone], the 50% inhibitory concentration (IC50) in experiment [1] was 3.38 nM; against AXL kinase, less than 0.11 nM.

Regarding `CNC(=O)c1cc(Cl)ccc1Nc1nc(Nc2ccc3c(c2)CC[C@@H](N2CCCC2)CC3)ncc1Cl` [Example 36, (S)-5-chloro-2-((5-chloro-2-((7-(pyrrolidin-1-yl)-6,7,8,9-tetrahydro-5H-benzo[7]annulen-2-yl)amino)pyrimidin-4-yl)amino)-N-methylbenzamide], the values for the concentration for half-maximal inhibition (IC50) (in experiment [1]; against AXL kinase) were 5.12 nM and 0.36 nM, respectively.

Regarding `COc1c(F)ccc(Nc2nc(Nc3ccc4c(c3)CC[C@@H](N3CCCC3)CC4)ncc2Cl)c1P(C)(C)=O` [Example 134, (S)-(6-((5-chloro-2-((7-(pyrrolidin-1-yl)-6,7,8,9-tetrahydro-5H-benzo[7]annulen-2-yl)amino)pyrimidin-4-yl)amino)-3-fluoro-2-methoxyphenyl)dimethyl phosphine oxide], the half-maximal inhibitory concentration (IC50) in experiment [1] was 3.63 nM; on AXL kinase, 0.85 nM.

With `CNC(=O)c1ccccc1Nc1nc(Nc2ccc3c(c2)CCN(C2CCOCC2)CC3)ncc1Cl` [Example 31, 2-((5-chloro-2-((3-(tetrahydro-2H-pyran-4-yl)-2,3,4,5-tetrahydro-1H-benzo[d]aza-7-yl)amino)pyrimidin-4-yl)amino)-N-methylbenzamide], the figures for the IC50 (in experiment [1]; against AXL kinase) were 1.46 nM and 0.8 nM, respectively.

Consider `Cc1c(F)ccc(Nc2nc(Nc3ccc4c(c3)CC[C@@H](N3CCCC3)CC4)ncc2Cl)c1P(C)(C)=O` [Example 135, (S)-(6-((5-chloro-2-((7-(pyrrolidin-1-yl)-6,7,8,9-tetrahydro-5H-benzo[7]annulen-2-yl)amino)pyrimidin-4-yl)amino)-3-fluoro-2-methylphenyl)dimethyl phosphine oxide], for which the figures for the IC50 (in experiment [1]; against AXL kinase) were 4.23 nM and 1.35 nM, respectively.

Consider `CP(C)(=O)c1cc(CO)ccc1Nc1nc(Nc2ccc3c(c2)CC[C@@H](N2CCCC2)CC3)ncc1Cl` [Example 141, (S)-(2-((5-chloro-2-((7-(pyrrolidin-1-yl)-6,7,8,9-tetrahydro-5H-benzo[7]annulen-2-yl)amino)pyrimidin-4-yl)amino)-5-(hydroxymethyl)phenyl)dimethyl phosphine oxide], for which the results for the 50% inhibitory concentration (IC50) (in experiment [1]; on AXL kinase) were 13.9 nM and 2.43 nM, respectively.

Regarding `CN(C)S(=O)(=O)c1ccccc1Nc1nc(Nc2ccc3c(c2)CC[C@@H](N2CCCC2)CC3)ncc1Cl` [Example 1, (S)-2-((5-chloro-2-((7-(pyrrolidin-1-yl)-6,7,8,9-tetrahydro-5H-benzo[7]annulen-2-yl)amino)pyrimidin-4-yl)amino)-N,N-dimethyl benzenesulfonamide], the 50% inhibitory concentration (IC50) in experiment [1] amounted to 6.83 nM; against AXL kinase it was 0.33 nM.

For `CC(C)(O)c1ccccc1Nc1nc(Nc2ccc3c(c2)CC[C@@H](N2CCCC2)CC3)ncc1Cl` [Example 15, (S)-2-(2-((5-chloro-2-((7-(pyrrolidin-1-yl)-6,7,8,9-tetrahydro-5H-benzo[7]annulen-2-yl)amino)pyrimidin-4-yl)amino)phenyl)propan-2-ol], the concentration for half-maximal inhibition (IC50) in experiment [1] turned out to be 9.15 nM; at AXL kinase, 2.41 nM.

Consider `CNC(=O)c1cc(C#N)ccc1Nc1nc(Nc2ccc3c(c2)CC[C@@H](N2CCCC2)CC3)ncc1Cl` [Example 34, (S)-2-((5-chloro-2-((7-(pyrrolidin-1-yl)-6,7,8,9-tetrahydro-5H-benzo[7]annulen-2-yl)amino)pyrimidin-4-yl)amino)-5-cyano-N-methylbenzamide], for which the values for the IC50 (in experiment [1]; against AXL kinase) were 6.16 nM and 1.27 nM, respectively.

In the case of `Clc1cnc(Nc2ccc3c(c2)CC[C@@H](N2CCCC2)CC3)nc1Nc1ccccc1-c1ncn[nH]1` [Example 25, (S)—N^4-(2-(1H-1,2,4-triazol-5-yl)phenyl)-5-chloro-N^2-(7-(pyrrolidin-1-yl)-6,7,8,9-tetrahydro-5H-benzo[7]annulen-2-yl)pyrimidine-2,4-diamine], the IC50 in experiment [1] turned out to be 3.23 nM; at AXL kinase it was 0.62 nM.

As to `NC(=O)c1ccccc1Nc1nc(Nc2ccc3c(c2)CC[C@@H](N2CCCC2)CC3)ncc1Cl` [Example 13, (S)-2-((5-chloro-2-((7-(pyrrolidin-1-yl)-6,7,8,9-tetrahydro-5H-benzo[7]annulen-2-yl)amino)pyrimidin-4-yl)amino)benzamide], the concentration for half-maximal inhibition (IC50) is 0.64 nM in experiment [1] and less than 0.11 nM against AXL kinase.

On to `COCc1ccc(Nc2nc(Nc3ccc4c(c3)CCC(N3CC5CC3C5)CC4)ncc2Cl)c(P(C)(C)=O)c1` (single isomer, unassigned) [Example 116 Isomer 116-1, (2-((2-((7-(2-azabicyclo[2.1.1]hexan-2-yl)-6,7,8,9-tetrahydro-5H-benzo[7]annulen-2-yl)amino)-5-chloropyrimidin-4-yl)amino)-5-(methoxymethyl)phenyl)dimethyl phosphine oxide], for which the IC50 in experiment [1] worked out at 10.1 nM; against AXL kinase, 4.94 nM.

Turning to `CNC(=O)c1ccccc1Nc1nc(Nc2ccc3c(c2)CC[C@@H](N2CCCC2)CC3)ncc1Cl` [Example 12, (S)-2-((5-chloro-2-((7-(pyrrolidin-1-yl)-6,7,8,9-tetrahydro-5H-benzo[7]annulen-2-yl)amino)pyrimidin-4-yl)amino)-N-methylbenzamide], the IC50 in experiment [1] was 1.44 nM; against AXL kinase, less than 0.11 nM.

Regarding `O=S(=O)(Nc1ccccc1Nc1nc(Nc2ccc3c(c2)CC[C@@H](N2CCCC2)CC3)ncc1Cl)C1CC1` [Example 41, (S)—N-(2-((5-chloro-2-((7-(pyrrolidin-1-yl)-6,7,8,9-tetrahydro-5H-benzo[7]annulen-2-yl)amino)pyrimidin-4-yl)amino)phenyl)cyclopropanesulfonamide], the figures for the half-inhibitory concentration (IC50) (in experiment [1]; on AXL kinase) were 4.28 nM and 2.08 nM, respectively.

Turning to `NC(=O)c1cc(F)ccc1Nc1nc(Nc2ccc3c(c2)CC[C@@H](N2CCCC2)CC3)ncc1Cl` [Example 16, (S)-2-((5-chloro-2-((7-(pyrrolidin-1-yl)-6,7,8,9-tetrahydro-5H-benzo[7]annulen-2-yl)amino)pyrimidin-4-yl)amino)-5-fluorobenzamide], the 50% inhibitory concentration (IC50) in experiment [1] came to 0.97 nM; against AXL kinase, 0.12 nM.

As to `CC(C)S(=O)(=O)c1ccccc1Nc1nc(Nc2ccc3c(c2)CC[C@@H](N2CCCC2)CC3)ncc1Cl` [Example 22, (S)-5-chloro-N^4-(2-(isopropylsulfo)phenyl)-N^2-(7-(pyrrolidin-1-yl)-6,7,8,9-tetrahydro-5H-benzo[7]annulen-2-yl)pyrimidine-2,4-diamine], the half-maximal inhibitory concentration (IC50) in experiment [1] was 6.76 nM; on AXL kinase, 0.11 nM.

For `O=C(NC1CCOC1)c1ccccc1Nc1nc(Nc2ccc3c(c2)CC[C@@H](N2CCCC2)CC3)ncc1Cl` (some centres unmarked) [Example 39], the IC50 stood at 6.4 nM in experiment [1] and 2.59 nM against AXL kinase.
